Measured values taken from ChEMBL document CHEMBL1146847, “Design and synthesis of potent, non-peptidic inhibitors of HPTPbeta” (Bioorg Med Chem Lett, 2006).

Experiments:
[1] = target: Receptor-type tyrosine-protein phosphatase beta (Homo sapiens, UniProt P23467)
[2] = target: T1, Receptor-type tyrosine-protein phosphatase F (Homo sapiens, UniProt P10586); test: Inhibition of LAR1
[3] = target: T2, Tyrosine-protein phosphatase non-receptor type 2 (Homo sapiens, UniProt P17706); test: Inhibition of TCPTP38
T2 sequence (P17706 whole entry): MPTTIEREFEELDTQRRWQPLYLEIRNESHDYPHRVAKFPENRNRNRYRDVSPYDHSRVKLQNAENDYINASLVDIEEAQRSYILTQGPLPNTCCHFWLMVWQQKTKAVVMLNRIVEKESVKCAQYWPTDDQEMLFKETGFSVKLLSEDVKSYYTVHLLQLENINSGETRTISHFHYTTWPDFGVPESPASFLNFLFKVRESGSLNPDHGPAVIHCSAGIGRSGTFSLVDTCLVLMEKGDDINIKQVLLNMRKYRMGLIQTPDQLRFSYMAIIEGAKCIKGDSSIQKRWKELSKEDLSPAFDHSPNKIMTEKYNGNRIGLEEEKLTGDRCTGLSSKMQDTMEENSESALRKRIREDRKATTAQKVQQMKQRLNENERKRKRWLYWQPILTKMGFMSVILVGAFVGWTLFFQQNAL

[4] = target: Receptor-type tyrosine-protein phosphatase gamma (Homo sapiens, UniProt P23470); test: Inhibition of PTP gamma
[5] = target: T3, Tyrosine-protein phosphatase non-receptor type 1 (Homo sapiens, UniProt P18031); test: Inhibition of PTP1B
T3 sequence (P18031 whole entry): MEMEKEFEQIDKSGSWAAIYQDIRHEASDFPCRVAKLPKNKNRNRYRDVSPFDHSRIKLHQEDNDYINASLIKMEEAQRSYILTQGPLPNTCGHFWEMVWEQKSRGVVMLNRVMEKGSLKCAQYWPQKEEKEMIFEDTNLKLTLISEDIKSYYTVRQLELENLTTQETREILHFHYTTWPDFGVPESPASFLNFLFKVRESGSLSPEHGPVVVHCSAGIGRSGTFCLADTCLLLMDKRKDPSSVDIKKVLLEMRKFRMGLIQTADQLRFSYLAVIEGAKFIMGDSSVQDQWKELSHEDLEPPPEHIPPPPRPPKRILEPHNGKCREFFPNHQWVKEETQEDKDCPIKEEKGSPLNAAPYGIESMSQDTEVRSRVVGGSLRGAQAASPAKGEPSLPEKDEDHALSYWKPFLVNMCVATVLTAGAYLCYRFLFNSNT

[6] = target: Receptor-type tyrosine-protein phosphatase epsilon (Homo sapiens, UniProt P23469); test: Inhibition of HPTP epsilon
[7] = target: T1, Receptor-type tyrosine-protein phosphatase F; test: Inhibition of LAR2
[8] = target: T4, Low molecular weight phosphotyrosine protein phosphatase (Homo sapiens, UniProt P24666); test: Inhibition of HCPTPA
T4 sequence (P24666 whole entry): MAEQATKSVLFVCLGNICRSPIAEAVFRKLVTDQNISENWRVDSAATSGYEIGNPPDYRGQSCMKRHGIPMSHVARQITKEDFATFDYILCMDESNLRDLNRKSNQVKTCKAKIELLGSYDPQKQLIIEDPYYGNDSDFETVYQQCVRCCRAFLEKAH

[9] = target: Receptor-type tyrosine-protein phosphatase mu (Homo sapiens, UniProt P28827); test: Inhibition of HPTP mu
[10] = target: T5, Receptor-type tyrosine-protein phosphatase C (Homo sapiens, UniProt P08575); test: Inhibition of CD45
T5 sequence (P08575 whole entry): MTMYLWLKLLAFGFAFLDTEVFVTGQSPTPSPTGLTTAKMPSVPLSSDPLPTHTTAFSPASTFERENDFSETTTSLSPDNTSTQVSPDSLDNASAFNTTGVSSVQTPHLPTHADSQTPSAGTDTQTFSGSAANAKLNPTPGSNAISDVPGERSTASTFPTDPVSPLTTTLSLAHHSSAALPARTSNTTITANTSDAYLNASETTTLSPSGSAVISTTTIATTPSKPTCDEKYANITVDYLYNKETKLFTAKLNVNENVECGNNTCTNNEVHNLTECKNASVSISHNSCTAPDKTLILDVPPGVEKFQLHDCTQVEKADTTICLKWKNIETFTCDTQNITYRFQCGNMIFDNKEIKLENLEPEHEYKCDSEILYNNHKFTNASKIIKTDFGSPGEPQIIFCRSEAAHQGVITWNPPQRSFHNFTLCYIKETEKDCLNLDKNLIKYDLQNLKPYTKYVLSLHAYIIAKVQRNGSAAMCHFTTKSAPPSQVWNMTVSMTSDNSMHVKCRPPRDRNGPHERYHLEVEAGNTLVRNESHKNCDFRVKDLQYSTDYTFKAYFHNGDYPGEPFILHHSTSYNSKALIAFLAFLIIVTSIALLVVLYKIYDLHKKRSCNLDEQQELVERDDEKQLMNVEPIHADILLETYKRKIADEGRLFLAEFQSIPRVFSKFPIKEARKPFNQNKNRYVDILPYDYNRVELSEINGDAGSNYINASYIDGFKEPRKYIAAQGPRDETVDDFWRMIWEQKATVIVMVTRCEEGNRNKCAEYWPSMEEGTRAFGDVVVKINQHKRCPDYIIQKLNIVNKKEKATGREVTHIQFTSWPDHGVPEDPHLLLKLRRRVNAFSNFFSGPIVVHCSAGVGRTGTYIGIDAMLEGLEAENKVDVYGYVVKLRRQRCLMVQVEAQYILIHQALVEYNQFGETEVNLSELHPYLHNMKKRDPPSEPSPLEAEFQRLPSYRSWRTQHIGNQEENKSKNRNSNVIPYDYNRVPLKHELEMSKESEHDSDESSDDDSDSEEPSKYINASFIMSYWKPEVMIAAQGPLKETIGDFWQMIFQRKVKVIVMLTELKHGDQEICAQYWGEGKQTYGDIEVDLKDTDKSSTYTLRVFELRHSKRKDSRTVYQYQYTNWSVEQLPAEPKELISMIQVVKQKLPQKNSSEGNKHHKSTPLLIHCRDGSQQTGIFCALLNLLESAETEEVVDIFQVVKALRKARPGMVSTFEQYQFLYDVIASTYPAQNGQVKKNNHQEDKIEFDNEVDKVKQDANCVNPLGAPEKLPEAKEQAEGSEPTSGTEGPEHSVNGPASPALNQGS

[11] = target: T2, Tyrosine-protein phosphatase non-receptor type 2; test: Inhibition of TCPTP
[12] = target: Receptor-type tyrosine-protein phosphatase alpha (Homo sapiens, UniProt P18433); test: Inhibition HPTPA

Chain of Receptor-type tyrosine-protein phosphatase gamma (P23470 whole entry): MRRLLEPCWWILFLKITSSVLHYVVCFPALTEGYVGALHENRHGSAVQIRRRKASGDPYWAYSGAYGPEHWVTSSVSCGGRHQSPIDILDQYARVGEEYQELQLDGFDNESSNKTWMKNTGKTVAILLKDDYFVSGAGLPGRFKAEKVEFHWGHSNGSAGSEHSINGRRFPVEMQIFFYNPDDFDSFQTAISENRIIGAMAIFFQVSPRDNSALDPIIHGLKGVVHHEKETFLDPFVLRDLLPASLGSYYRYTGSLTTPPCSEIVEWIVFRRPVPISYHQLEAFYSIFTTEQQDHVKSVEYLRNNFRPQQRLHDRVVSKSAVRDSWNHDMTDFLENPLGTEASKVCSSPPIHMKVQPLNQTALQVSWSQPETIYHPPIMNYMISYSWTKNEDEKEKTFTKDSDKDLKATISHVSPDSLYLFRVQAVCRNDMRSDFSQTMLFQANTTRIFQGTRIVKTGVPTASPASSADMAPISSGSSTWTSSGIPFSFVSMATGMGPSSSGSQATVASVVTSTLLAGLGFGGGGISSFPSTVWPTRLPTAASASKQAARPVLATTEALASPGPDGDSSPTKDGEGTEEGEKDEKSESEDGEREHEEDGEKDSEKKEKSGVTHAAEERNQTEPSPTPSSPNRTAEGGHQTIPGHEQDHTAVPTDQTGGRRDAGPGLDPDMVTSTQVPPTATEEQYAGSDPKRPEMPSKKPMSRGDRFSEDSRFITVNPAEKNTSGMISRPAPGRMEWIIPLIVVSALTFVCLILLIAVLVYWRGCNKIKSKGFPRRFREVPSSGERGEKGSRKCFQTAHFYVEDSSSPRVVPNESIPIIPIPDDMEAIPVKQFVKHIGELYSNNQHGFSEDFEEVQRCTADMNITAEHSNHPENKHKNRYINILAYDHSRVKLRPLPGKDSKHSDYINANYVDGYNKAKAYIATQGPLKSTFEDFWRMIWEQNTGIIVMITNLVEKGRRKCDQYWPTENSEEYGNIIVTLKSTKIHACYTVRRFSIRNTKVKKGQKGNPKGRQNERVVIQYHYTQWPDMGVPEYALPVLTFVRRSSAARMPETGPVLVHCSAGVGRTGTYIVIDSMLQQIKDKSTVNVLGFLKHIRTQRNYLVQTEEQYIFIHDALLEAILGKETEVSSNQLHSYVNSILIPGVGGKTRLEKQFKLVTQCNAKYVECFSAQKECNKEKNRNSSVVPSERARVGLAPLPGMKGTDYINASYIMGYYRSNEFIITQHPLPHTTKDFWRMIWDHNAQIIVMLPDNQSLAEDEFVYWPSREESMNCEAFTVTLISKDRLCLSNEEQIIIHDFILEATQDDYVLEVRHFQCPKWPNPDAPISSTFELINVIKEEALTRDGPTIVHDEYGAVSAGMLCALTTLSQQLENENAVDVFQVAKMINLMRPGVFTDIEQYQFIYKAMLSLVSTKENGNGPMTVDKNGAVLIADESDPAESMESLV
Chain of Receptor-type tyrosine-protein phosphatase mu (P28827 whole entry): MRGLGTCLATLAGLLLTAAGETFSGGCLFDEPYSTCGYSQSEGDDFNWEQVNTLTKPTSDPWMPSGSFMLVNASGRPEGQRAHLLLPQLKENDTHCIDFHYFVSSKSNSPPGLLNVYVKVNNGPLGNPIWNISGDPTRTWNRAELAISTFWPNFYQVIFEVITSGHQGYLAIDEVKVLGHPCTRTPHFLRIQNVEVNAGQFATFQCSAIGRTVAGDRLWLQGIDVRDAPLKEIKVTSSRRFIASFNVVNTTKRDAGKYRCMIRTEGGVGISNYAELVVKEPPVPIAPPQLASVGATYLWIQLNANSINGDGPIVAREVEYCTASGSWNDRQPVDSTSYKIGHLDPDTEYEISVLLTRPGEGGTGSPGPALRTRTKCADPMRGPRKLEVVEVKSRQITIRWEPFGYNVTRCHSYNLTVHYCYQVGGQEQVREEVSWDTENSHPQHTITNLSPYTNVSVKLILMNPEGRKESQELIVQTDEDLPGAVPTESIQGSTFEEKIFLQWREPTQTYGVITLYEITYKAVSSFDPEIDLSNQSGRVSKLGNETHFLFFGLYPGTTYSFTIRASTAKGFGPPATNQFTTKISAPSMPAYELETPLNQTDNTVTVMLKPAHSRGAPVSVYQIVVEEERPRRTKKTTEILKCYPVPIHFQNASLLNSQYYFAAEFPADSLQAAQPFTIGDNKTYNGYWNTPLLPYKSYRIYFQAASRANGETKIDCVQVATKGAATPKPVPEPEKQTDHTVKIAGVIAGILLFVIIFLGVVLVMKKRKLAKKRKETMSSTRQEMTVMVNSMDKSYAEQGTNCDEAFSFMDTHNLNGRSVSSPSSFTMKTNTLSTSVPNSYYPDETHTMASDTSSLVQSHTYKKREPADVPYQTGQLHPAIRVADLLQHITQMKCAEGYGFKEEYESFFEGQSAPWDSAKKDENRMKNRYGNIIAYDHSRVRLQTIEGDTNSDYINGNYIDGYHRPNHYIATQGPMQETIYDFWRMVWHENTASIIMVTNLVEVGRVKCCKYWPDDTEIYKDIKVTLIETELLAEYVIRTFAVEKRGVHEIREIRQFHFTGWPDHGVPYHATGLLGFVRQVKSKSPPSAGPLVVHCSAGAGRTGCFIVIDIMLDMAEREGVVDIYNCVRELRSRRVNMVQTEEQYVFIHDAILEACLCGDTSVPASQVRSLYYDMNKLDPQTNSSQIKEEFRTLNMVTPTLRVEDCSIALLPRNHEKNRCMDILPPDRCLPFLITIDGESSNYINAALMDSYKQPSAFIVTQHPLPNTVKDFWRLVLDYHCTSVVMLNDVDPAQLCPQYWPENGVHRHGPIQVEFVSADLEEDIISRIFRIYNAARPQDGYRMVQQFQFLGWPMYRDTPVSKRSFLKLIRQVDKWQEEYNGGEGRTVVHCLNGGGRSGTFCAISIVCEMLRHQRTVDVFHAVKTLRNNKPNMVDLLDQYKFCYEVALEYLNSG
Chain of Receptor-type tyrosine-protein phosphatase beta (P23467 whole entry): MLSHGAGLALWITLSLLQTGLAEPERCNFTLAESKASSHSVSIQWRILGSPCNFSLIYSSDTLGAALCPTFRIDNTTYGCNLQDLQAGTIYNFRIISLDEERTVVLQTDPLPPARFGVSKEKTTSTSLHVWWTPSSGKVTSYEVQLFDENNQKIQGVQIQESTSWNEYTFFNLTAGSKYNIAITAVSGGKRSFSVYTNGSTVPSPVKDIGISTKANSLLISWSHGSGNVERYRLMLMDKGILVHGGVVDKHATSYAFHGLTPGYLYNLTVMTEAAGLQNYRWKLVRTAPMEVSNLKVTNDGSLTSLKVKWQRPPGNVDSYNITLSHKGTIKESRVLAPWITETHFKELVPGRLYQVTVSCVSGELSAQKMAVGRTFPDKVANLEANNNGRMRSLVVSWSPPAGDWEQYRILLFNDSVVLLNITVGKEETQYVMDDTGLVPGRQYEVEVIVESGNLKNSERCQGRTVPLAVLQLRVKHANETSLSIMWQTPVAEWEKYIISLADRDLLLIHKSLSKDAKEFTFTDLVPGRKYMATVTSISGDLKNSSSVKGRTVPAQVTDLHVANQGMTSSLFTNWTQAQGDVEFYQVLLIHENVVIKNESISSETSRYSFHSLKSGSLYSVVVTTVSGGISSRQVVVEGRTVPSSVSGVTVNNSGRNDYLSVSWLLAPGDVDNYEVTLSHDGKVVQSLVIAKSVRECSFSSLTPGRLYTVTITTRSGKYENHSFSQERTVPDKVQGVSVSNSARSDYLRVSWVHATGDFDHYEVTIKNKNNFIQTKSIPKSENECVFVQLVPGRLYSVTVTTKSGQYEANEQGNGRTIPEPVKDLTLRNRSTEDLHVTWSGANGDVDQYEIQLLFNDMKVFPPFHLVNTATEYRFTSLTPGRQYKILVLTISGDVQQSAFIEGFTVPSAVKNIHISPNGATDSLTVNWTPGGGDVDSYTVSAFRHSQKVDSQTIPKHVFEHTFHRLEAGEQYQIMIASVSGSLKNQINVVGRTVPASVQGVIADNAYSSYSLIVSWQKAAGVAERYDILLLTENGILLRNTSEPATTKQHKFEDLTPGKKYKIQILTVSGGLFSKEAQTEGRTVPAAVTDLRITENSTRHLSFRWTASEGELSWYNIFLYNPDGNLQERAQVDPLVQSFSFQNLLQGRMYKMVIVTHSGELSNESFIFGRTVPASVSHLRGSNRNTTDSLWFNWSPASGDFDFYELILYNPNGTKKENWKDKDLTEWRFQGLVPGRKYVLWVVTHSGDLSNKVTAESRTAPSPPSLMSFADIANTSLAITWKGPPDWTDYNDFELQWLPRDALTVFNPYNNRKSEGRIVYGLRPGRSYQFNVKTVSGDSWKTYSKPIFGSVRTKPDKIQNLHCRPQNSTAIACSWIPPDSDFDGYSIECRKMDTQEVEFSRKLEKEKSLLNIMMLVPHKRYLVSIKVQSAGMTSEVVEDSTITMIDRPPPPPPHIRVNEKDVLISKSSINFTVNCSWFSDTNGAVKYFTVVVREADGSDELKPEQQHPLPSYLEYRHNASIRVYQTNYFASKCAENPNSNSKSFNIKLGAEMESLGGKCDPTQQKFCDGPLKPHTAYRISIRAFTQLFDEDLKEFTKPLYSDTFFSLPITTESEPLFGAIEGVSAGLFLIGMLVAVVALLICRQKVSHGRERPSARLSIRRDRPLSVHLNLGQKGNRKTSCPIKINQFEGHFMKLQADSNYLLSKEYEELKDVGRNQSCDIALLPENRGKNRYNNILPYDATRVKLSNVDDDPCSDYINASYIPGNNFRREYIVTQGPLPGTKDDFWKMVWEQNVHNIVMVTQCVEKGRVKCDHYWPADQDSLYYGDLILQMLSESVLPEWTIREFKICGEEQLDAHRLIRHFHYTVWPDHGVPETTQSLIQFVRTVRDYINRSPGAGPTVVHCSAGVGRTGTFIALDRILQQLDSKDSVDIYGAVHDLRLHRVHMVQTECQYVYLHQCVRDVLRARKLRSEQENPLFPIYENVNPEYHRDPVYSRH

Structure (SMILES): COC(=O)C(Cc1ccc(NS(=O)(=O)O)cc1)C(=O)OC
- IC50 [1]: 1000 nM

Structure (SMILES): COC(=O)C(Cc1ccc(NS(=O)(=O)O)cc1)(Cc1ccc(C(=O)O)cc1)C(=O)OC
- IC50 [1]: 140 nM

Structure (SMILES): COc1ccc(CC(Cc2ccc(NS(=O)(=O)O)cc2)(c2nc(C)no2)c2nc(C)no2)cc1
- IC50 [1]: 340 nM

Structure (SMILES): COC(=O)C(Cc1ccc(NS(=O)(=O)O)cc1)(Cc1cccc(S(N)(=O)=O)c1)C(=O)OC
- IC50 [1]: 300 nM

Structure (SMILES): CCOC(=O)C(Cc1ccc(NS(=O)(=O)O)cc1)(NC(=O)OC(C)(C)C)C(=O)OC (configuration not stated)
- IC50 [1]: 450 nM

Structure (SMILES): COC(=O)C(CCCS(=O)(=O)c1ccccc1)(Cc1ccc(NS(=O)(=O)O)cc1)C(=O)OC
- IC50 [1]: 150 nM

Structure (SMILES): COc1cccc(CC(Cc2ccc(NS(=O)(=O)O)cc2)(c2nc(C)no2)c2nc(C)no2)c1
- IC50 [1]: 230 nM

Structure (SMILES): CCOC(=O)C(Cc1ccc(NS(=O)(=O)O)cc1)(NC(=O)OCc1ccccc1)C(=O)OC (configuration not stated)
- IC50 [2]: 227000 nM
- IC50 [3]: 78000 nM
- IC50 [4]: 196000 nM
- IC50 [5]: 12800 nM
- IC50 [6]: > 500000 nM
- IC50 [1]: 400 nM
- IC50 [7]: 472000 nM
- IC50 [8]: 82200 nM
- IC50 [9]: > 500000 nM
- IC50 [10]: 280000 nM

Structure (SMILES): COC(=O)C(Cc1ccncc1)(Cc1ccc(NS(=O)(=O)O)cc1)C(=O)OC
- IC50 [1]: 570 nM

Structure (SMILES): CCOC(=O)C(CCNC(=O)OC(C)(C)C)(Cc1ccc(NS(=O)(=O)O)cc1)C(=O)OC (configuration not stated)
- IC50 [1]: 90 nM

Structure (SMILES): COC(=O)C(CCCSc1nnnn1-c1ccccc1)(Cc1ccc(NS(=O)(=O)O)cc1)C(=O)OC
- IC50 [1]: 200 nM

Structure (SMILES): COC(=O)C(Cc1ccc(NS(=O)(=O)O)cc1)(Cc1ccc(OC)cc1)C(=O)OC
- IC50 [1]: 390 nM

Structure (SMILES): COC(=O)C(Cc1ccc(NS(=O)(=O)O)cc1)(Cc1cccc(OC)c1)C(=O)OC
- IC50 [1]: 330 nM

Structure (SMILES): Cc1noc(C(Cc2ccc(NS(=O)(=O)O)cc2)(Cc2ccc(NS(=O)(=O)O)cc2)c2nc(C)no2)n1
- IC50 [1]: 80 nM

Structure (SMILES): COC(=O)C(Cc1ccc(NS(=O)(=O)O)cc1)(Cc1ccc(NS(=O)(=O)O)cc1)C(=O)OC
- IC50 [1]: 60 nM

Structure (SMILES): COC(=O)C(Cc1ccc(NS(=O)(=O)O)cc1)(Cc1cccc(NS(=O)(=O)O)c1)C(=O)OC
- IC50 [1]: 100 nM

Structure (SMILES): COC(=O)CCCC(Cc1ccc(NS(=O)(=O)O)cc1)(C(=O)OC)C(=O)OC
- IC50 [1]: 380 nM

Structure (SMILES): COC(=O)C(CCCS(=O)(=O)c1nnnn1-c1ccccc1)(Cc1ccc(NS(=O)(=O)O)cc1)C(=O)OC
- IC50 [1]: 80 nM

Structure (SMILES): COC(=O)C(CCCS(C)(=O)=O)(Cc1ccc(NS(=O)(=O)O)cc1)C(=O)OC
- IC50 [1]: 420 nM

Structure (SMILES): COC(=O)C(Cc1ccc(NS(=O)(=O)O)cc1)(Cc1ccc(S(N)(=O)=O)cc1)C(=O)OC
- IC50 [1]: 430 nM

Structure (SMILES): CCOC(=O)CC(Cc1ccc(NS(=O)(=O)O)cc1)(C(=O)OC)C(=O)OC
- IC50 [2]: 288000 nM
- IC50 [3]: 109000 nM
- IC50 [4]: 200000 nM
- IC50 [5]: 16200 nM
- IC50 [6]: > 500000 nM
- IC50 [1]: 230 nM
- IC50 [7]: > 500000 nM
- IC50 [8]: 4800 nM
- IC50 [9]: > 500000 nM
- IC50 [10]: 126000 nM

Structure (SMILES): COC(=O)C(Cc1ccccc1)(Cc1ccc(NS(=O)(=O)O)cc1)C(=O)OC
- IC50 [5]: 6100 nM
- IC50 [11]: 19400 nM
- IC50 [12]: 900 nM

Structure (SMILES): COC(=O)c1cccc(CC(Cc2ccc(NS(=O)(=O)O)cc2)(C(=O)OC)C(=O)OC)c1
- IC50 [1]: 290 nM

Structure (SMILES): Cc1noc(C(Cc2ccc(NS(=O)(=O)O)cc2)(Cc2cccc(C#N)c2)c2nc(C)no2)n1
- IC50 [1]: 210 nM

Structure (SMILES): COC(=O)C(CCCc1ccccc1)(Cc1ccc(NS(=O)(=O)O)cc1)C(=O)OC
- IC50 [2]: 409000 nM
- IC50 [3]: 15300 nM
- IC50 [4]: 93000 nM
- IC50 [5]: 2300 nM
- IC50 [6]: > 500000 nM
- IC50 [1]: 150 nM
- IC50 [7]: > 500000 nM
- IC50 [8]: 7700 nM
- IC50 [9]: > 500000 nM
- IC50 [10]: 29000 nM

Structure (SMILES): COC(=O)C(COCc1ccccc1)(Cc1ccc(NS(=O)(=O)O)cc1)C(=O)OC
- IC50 [1]: 270 nM

Structure (SMILES): Cc1noc(C(CCCc2ccccc2)(Cc2ccc(NS(=O)(=O)O)cc2)c2nc(C)no2)n1
- IC50 [1]: 70 nM

Structure (SMILES): COC(=O)c1ccc(CC(Cc2ccc(NS(=O)(=O)O)cc2)(C(=O)OC)C(=O)OC)cc1
- IC50 [1]: 410 nM
